# Literature values in patent US7211274B2, “Hair growth formulation” (Hovis SDN BHD, priority 2002, dated 2007).
# Details: reported
substance,measurement,value
tocotrienols,Half life in humans,2 to 4 h
tocopherols,Half life in humans,about 20 hours
